# Source: US20170209447A1, “Use of PNP Inhibitor to Treat Relapse of Malignancy after Hematopoietic Stem Cell Transplant” (Nitor Therapeutics, priority 2014, published 2017)
# Assays:
# B16 tumors = assay: PNPi as anticancer agent in mouse melanoma model; assay type: in vivo, C57BL/6 mice; conditions: cyclophosphamide 100 mg/kg IP single dose; FIG. 6
# Method: Evaluation of PNPi as Anticancer Agent in Mouse Melanoma Model.
# Treatment with the NTR001 was initiated on day 6 after injection of tumor cells. Tumor volume and survival were recorded every 3-4 days.
# [1] = tested on: L. monocytogenes (ATCC Strain35152, hemolytic substrain); conditions: 30 mg/kg PO or IP, or 2 mg/kg drinking water; 1×10^6 CFU i.v.; FIGS. 7 and 9
# tetanus toxoid vaccine = assay: PNPi as adjuvant in tetanus toxoid vaccine efficacy study (tetanus toxoid mouse model); assay type: in vivo, mice; conditions: compared to vehicle treated group
# Method: This Example Evaluates PNPi as an Adjuvant in Tetanus Toxoid Vaccine Efficacy Study.
# Method: Tetanus toxoid (TT) was used to vaccinate mice thrice, two weeks apart. Mice were treated by oral administration of compounds NTR001 and NTR002 and serum was collected at various time points for antibody titer and interferon-g analysis. Mice in Groups 2-6 (Table 2) are vaccinated subcutaneously with 0.1 ml tetanus toxoid vaccine on DAYS 0, 14 and 28. Mice in Group 1 (Table 1) received no vaccine. Antibody titers for DAYS 38 are determined by ELISA using tetanus toxoid coated microtiter plates and anti-mouse conjugate. Sera from DAY 30 are assayed by ELISA for interferon-g.
# human TLR2 = target: T1, human TLR2 (Homo sapiens, UniProt O60603); assay: TLR ligand screening: NF-κB SEAP reporter in HEK293 cells expressing TLR2; assay type: cell-based; conditions: FIG. 2
# T1 construct: expressed in transfected cells; host or cells: HEK293
# Method: (§1) Toll-Like Receptor (TLR) Ligand Screening: In-vitro Activity of the PNPi, Guanosine and Inosine on Seven Different Human TLRs (TLR2, 3, 4, 5, 7, 8 and 9) as a Potential Agonist.
# (§2) Method: TLR stimulation is tested by assessing NF-KB activation in HEK293 cells expressing a given TLR. The Secreted Embryonic Alkaline Phosphatase (SEAP) reporter is under the control of a promoter inducible by the transcription factor NF-κB.
# (§3) This reporter gene allows the monitoring of signaling through the TLR, based on the activation of NF-κB. The compounds are evaluated at one concentration and compared to control ligands. This step is performed in triplicate.
# human TLR4 = target: T2, human TLR4 (Homo sapiens, UniProt O00206); assay: TLR ligand screening: NF-κB SEAP reporter in HEK293 cells expressing TLR4; assay type: cell-based; conditions: FIG. 2
# T2 construct: expressed in transfected cells; host or cells: HEK293
# Method: as §1, §2, §3
# [2] = Guanosine 100 uM in combination with NTR001 (10 uM) and/or Inosine (100 uM)
# [3] = one concentration: Guanosine 100 uM, NTR001 10 uM, Inosine 100 uM, HEK293, triplicate
# T2 sequence (O00206 24-839): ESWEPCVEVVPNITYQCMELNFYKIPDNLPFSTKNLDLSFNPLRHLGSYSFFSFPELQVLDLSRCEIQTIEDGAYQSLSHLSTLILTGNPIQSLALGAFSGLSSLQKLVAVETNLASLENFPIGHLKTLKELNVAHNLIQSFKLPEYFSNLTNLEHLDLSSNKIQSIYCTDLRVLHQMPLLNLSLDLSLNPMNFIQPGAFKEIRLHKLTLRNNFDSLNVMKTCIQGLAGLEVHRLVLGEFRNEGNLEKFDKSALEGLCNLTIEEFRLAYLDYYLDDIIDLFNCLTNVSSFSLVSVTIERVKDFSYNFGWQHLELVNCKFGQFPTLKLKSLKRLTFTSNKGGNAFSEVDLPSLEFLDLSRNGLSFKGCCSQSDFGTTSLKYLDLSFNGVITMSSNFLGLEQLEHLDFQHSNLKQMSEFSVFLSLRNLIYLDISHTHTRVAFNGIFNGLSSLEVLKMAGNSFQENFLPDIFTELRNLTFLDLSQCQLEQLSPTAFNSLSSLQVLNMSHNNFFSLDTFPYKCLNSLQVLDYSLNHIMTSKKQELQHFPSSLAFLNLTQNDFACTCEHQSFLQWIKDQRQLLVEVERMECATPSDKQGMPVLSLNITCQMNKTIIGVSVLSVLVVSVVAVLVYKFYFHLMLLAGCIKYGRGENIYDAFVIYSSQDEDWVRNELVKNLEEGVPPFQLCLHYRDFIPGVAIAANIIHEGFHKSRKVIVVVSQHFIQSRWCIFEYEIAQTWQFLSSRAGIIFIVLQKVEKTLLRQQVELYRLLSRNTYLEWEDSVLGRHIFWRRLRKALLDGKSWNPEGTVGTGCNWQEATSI
# T2 sequence (Q9Y6Y9 17-160 partner limits assumed): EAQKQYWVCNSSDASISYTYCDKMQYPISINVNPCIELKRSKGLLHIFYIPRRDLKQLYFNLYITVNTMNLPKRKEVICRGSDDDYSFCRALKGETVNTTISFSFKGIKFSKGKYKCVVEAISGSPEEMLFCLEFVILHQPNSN
# T1 sequence (O60603 21-784): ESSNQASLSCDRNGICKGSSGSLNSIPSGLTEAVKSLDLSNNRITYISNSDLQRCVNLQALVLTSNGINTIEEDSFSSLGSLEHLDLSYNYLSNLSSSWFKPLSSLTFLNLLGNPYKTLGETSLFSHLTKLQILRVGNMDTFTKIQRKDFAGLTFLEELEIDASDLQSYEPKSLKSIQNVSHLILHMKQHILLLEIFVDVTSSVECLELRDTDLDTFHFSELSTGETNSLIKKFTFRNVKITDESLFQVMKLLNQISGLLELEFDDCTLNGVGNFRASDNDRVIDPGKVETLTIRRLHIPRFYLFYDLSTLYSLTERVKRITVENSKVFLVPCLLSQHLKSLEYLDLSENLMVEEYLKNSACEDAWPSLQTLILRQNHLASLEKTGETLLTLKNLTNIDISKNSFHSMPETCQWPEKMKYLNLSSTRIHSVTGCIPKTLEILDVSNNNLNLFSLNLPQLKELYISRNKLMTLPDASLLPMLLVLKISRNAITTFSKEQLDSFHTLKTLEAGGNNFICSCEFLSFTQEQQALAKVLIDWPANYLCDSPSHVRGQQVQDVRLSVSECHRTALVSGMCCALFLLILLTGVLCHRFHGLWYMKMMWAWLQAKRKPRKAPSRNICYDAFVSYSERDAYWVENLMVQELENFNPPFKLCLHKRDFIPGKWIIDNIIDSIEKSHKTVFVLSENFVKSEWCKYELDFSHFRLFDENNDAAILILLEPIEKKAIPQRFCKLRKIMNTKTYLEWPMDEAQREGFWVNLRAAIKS
smiles,measurement,setting,value
"O=P1(N(CCCl)CCCl)NCCCO1 (centres unmarked) [Cyclcophosphamide, cyclophosphamide, reference compound]",survival,B16 tumors,30%
"O=c1[nH]cnc2c(CN3C[C@H](CO)[C@@H](O)C3)c[nH]c12 [NTR002, 1,5-dihydro-7-[[(3R,4R)-3-hydroxy-4-(hydroxymethyl)pyrrolidin-1-yl]methyl]-4H-pyrrolo[3,2-d]pyrimidin-4-one]",weight loss,[1],significant decrease
same,serum interferon-g levels,"tetanus toxoid vaccine; day 30, ELISA, high dose group 60 mg/kg p.o., FIG. 4",elevated
same,serum tetanus toxoid antibody titers,"tetanus toxoid vaccine; day 38, ELISA, p.o. 30 mg/kg (6 days of treatment) and 60 mg/kg (3 days of treatment), FIG. 3",significantly elevated
"Nc1nc2c(ncn2[C@@H]2O[C@H](CO)[C@@H](O)[C@H]2O)c(=O)[nH]1 [Guanosine, guanosine]","stimulatory effect on human TLR2 (NF-κB activation), combination",human TLR2; [2],significant stimulatory effect
same,stimulatory effect on human TLR2 (NF-κB activation),human TLR2; [3],significant stimulatory effect
same,"stimulatory effect on human TLR4 (NF-κB activation), combination",human TLR4; [2],significant stimulatory effect
same,stimulatory effect on human TLR4 (NF-κB activation),human TLR4; [3],significant stimulatory effect
